Experimental findings from patent US12344595B2, “2-amino-n-phenyl-nicotinamides as NAV1.8 inhibitors” (Merck Sharp & Dohme LLC, priority 2018, dated 2025) are described below.

By IC50 is commonly meant the concentration that inhibits the measured activity by half. High values mean weaker potency, low ones greater potency.

In this assay the target is human Nav1.8 (Homo sapiens (Human), UniProt Q9Y5Y9). Description: Nav1.8 Qube automated patch-clamp assay. Format: cell-based. Conditions: Nav1.8 Qube Assay; human Nav1.8 channels stably expressed in HEK 293 cells. The method, boiled down: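 Whole-cell automated patch clamp was run at room temperature on HEK293 cells stably expressing the channel. A 1 Hz, 10 s train of 20 ms pulses to 10 mV from −90 mV (repolarizing to −67 mV) was applied. Peak currents at the 1st and 10th pulses gave resting and inactivated-state IC50 values by Hill fit.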
Chain of human Nav1.8 (Q9Y5Y9 whole entry): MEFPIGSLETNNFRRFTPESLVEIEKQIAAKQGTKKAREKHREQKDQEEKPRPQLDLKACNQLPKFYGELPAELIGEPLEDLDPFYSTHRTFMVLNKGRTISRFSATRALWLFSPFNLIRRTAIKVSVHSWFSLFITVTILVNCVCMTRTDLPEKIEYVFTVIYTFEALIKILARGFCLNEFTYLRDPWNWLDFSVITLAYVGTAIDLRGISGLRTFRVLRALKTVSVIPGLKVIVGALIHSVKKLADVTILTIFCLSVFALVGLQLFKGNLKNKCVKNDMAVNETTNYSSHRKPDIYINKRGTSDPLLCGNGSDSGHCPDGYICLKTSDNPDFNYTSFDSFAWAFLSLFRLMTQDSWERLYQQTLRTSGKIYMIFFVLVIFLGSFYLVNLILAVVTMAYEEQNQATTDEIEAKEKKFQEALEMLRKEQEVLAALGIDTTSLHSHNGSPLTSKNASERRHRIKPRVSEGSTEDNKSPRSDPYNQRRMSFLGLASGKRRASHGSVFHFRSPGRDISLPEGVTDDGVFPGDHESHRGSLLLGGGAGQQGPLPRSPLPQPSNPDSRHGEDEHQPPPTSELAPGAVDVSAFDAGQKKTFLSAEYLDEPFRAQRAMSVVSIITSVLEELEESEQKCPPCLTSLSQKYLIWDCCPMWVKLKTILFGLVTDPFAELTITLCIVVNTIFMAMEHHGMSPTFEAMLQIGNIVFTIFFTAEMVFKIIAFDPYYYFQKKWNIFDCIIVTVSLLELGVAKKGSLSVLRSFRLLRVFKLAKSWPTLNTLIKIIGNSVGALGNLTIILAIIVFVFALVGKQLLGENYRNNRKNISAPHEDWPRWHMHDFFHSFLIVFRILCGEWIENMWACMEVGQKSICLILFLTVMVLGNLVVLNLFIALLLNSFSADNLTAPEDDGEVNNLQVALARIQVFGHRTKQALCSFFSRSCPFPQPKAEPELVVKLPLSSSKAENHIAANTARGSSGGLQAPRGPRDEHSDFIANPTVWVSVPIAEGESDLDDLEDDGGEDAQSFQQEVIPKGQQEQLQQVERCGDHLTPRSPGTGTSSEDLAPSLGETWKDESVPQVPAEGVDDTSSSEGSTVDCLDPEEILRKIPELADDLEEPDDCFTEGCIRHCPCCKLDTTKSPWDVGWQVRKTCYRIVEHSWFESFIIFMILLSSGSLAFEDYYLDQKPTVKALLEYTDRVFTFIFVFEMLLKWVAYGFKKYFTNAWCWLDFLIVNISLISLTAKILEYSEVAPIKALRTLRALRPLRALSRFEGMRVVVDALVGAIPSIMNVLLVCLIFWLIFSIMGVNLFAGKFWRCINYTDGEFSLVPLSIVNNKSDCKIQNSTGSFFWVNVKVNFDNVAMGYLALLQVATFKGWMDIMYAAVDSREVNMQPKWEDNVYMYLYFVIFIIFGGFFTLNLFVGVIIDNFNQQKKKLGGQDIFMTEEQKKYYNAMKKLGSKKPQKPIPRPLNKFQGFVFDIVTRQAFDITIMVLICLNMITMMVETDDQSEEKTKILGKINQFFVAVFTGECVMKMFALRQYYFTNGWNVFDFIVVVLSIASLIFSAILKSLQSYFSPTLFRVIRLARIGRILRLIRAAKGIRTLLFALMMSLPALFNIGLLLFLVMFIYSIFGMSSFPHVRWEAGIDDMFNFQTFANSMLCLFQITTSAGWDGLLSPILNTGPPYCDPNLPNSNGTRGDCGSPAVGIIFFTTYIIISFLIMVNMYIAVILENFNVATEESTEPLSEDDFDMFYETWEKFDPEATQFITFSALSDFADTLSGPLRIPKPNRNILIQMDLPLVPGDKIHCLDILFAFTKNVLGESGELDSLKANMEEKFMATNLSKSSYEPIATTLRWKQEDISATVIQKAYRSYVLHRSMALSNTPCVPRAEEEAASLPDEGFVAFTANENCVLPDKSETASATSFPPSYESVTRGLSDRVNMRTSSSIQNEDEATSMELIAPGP
On to `NC(=O)c1cccc(NC(=O)c2cc(C(F)(F)F)cnc2N2CCCC(F)(F)C2)c1` [Example 110, N-(3-carbamoylphenyl)-2-(3,3-difluoro-1-piperidyl)-5-(tri-fluoromethyl)pyridine-3-carboxamide], for which the half-inhibitory concentration (IC50) stood at 3770 nM.

The molecule `C[C@@H]1CN(c2ncc(C(F)(F)F)cc2C(=O)Nc2ccc3c(c2)S(=O)(=O)NC3)C[C@H](C)C1(F)F` [Example 111, 2-[(3S,5R)-4,4-difluoro-3,5-dimethyl-1-piperidyl]-N-(1,1-dioxo-2,3-dihydro-1,2-benzothiazol-6-yl)-5-(trifluoromethyl) pyridine-3-carboxamide] displayed a half-maximal inhibitory concentration (IC50) of 63 nM.

For `NS(=O)(=O)c1cc(F)cc(NC(=O)c2cc(C(F)(F)F)cnc2N2CCCCC2)c1` [Example 114, N-(3-fluoro-5-sulfamoyl-phenyl)-2-(1-piperidyl)-5-(tri-fluoromethyl)-pyridine-3-carboxamide], the IC50 is 242 nM.

In the case of `NS(=O)(=O)c1cc(NC(=O)c2cc(C(F)(F)F)cnc2N2CCCCC2)ccc1F` [Example 115, N-(4-fluoro-3-sulfamoyl-phenyl)-2-(1-piperidyl)-5-(trifluoro-methyl)pyridine-3-carboxamide], the IC50 is 567 nM.

`NS(=O)(=O)c1ccc(F)c(NC(=O)c2cc(C(F)(F)F)cnc2N2CCCCC2)c1` [Example 116, N-(2-fluoro-5-sulfamoyl-phenyl)-2-(1-piperidyl)-5-(tri-fluoromethyl)pyridine-3-carboxamide] returned an IC50 of 3000 nM.

In turn, `CC(C)S(=O)(=O)c1cccc(NC(=O)c2cc(C(F)(F)F)cnc2N2CCCCCC2)c1` [Example 117, 2-(azepan-1-yl)-N-(3-isopropylsulfonylphenyl)-5-(trifluoromethyl)-pyridine-3-carboxamide] had an IC50 of 778 nM.

In turn, `O=C(Nc1ccc2c(c1)S(=O)(=O)C=C2)c1cc(C(F)(F)F)cnc1N1CCCCCC1` [Example 118, 2-(azepan-1-yl)-N-(1,1-dioxobenzothiophen-6-yl)-5-(trifluoromethyl)-pyridine-3-carboxamide] came in with an IC50 of 2280 nM. Against the preceding molecule, the IC50 is about 2.9-fold higher.

`CC(C)CS(=O)(=O)c1cccc(NC(=O)c2cc(C(F)(F)F)cnc2N2CCCCCC2)c1` [Example 119, 2-(azepan-1-yl)-N-(3-isobutylsulfonylphenyl)-5-(trifluoromethyl)-pyridine-3-carboxamide] came in with an IC50 of 2400 nM.

`O=C(Nc1cccc(S(=O)(=O)C2CCCC2)c1)c1cc(C(F)(F)F)cnc1N1CCCCCC1` [Example 120, 2-(azepan-1-yl)-N-(3-cyclopentylsulfonylphenyl)-5-(trifluoro-methyl)-pyridine-3-carboxamide] returned an IC50 of 3020 nM. The IC50 values of the last two molecules are within 1.5-fold of each other.

For the molecule `O=C(Nc1ccc2c(c1)S(=O)(=O)NC2)c1cc(C(F)(F)F)cnc1N1CCCCCC1` [Example 121, 2-(azepan-1-yl)-N-(1,1-dioxo-2,3-dihydro-1,2-benzothiazol-6-yl)-5-(trifluoromethyl)-pyridine-3-carboxamide], the 50% inhibitory concentration (IC50) was 189 nM. Against the preceding molecule, the IC50 is about 16-fold lower.

Molecule `CN1Cc2ccc(NC(=O)c3cc(C(F)(F)F)cnc3N3CCCCCC3)cc2S1(=O)=O` [Example 122, 2-(azepan-1-yl)-3-((2-methyl-1,1-dioxido-2,3-dihydrobenzo[d]isothiazol-6-yl)-carbamoyl)-5-(trifluoromethyl)pyridine] gave an IC50 of 9140 nM.

The molecule `C[C@@H]1CN(c2ncc(C(F)(F)F)cc2C(=O)Nc2cccc(S(N)(=O)=O)c2)C[C@H](C)C1(F)F` [Example 125, 2-[(3S,5R)-4,4-difluoro-3,5-dimethyl-1-piperidyl]-N-(3-sulfamoylphenyl)-5-(trifluoromethyl)-pyridine-3-carboxamide] gave an IC50 of 2.4 nM.

In turn, `NS(=O)(=O)c1cccc(NC(=O)c2cc(C(F)(F)F)cnc2N2C[C@H]3C[C@@H](C2)C3(F)F)c1` [Example 132, 2-[(1R,5S)-6,6-difluoro-3-azabicyclo[3.1.1]-heptan-3-yl]-N-(3-sulfamoylphenyl)-5-(trifluoromethyl)-pyridine-3-carboxamide] gave an IC50 of 170 nM.

In turn, `NS(=O)(=O)c1cccc(NC(=O)c2cc(C(F)(F)F)cnc2N2C[C@@H]3[C@H](C2)C(F)(F)C3(F)F)c1` [Example 133, N-(3-sulfamoylphenyl)-2-[(1R,5S)-6,6,7,7-tetrafluoro-3-azabicyclo-[3.2.0]heptan-3-yl]-5-(trifluoromethyl)-pyridine-3-carboxamide] had an IC50 of 21 nM.

Molecule `NS(=O)(=O)c1cccc(NC(=O)c2cc(C(F)(F)F)cnc2N2C[C@H]3CC[C@H]3C2)c1` [Example 134, 2-((1R,5S)-3-azabicyclo[3.2.0]heptan-3-yl]-N-(3-sulfamoyl-phenyl)-5-(trifluoro-methyl)-pyridine-3-carboxamide] registered an IC50 of 25 nM.

Regarding `NS(=O)(=O)c1cccc(NC(=O)c2cc(C(F)(F)F)cnc2N2C3CCC2CC3)c1` [Example 139, 2-(7-azabicyclo[2.2.1]heptan-7-yl)-N-(3-sulfamoyl-phenyl)-5-(trifluoro-methyl)pyridine-3-carboxamide], 3460 nM corresponded to half-maximal inhibition (IC50). This IC50 is about 140-fold higher than that of the molecule before.

The molecule `NS(=O)(=O)c1cccc(NC(=O)c2cc(C(F)(F)F)cnc2N2CCO[C@H](C(F)(F)F)C2)c1` [Example 140, N-(3-sulfamoylphenyl)-5-(trifluoromethyl)-2-[(2S)-2-(trifluoro-methyl)--morpholin-4-yl]pyridine-3-carboxamide] yielded an IC50 of 83 nM.

For the molecule `NS(=O)(=O)c1cccc(NC(=O)c2cc(C(F)(F)F)cnc2N2CCO[C@@H](C(F)(F)F)C2)c1` [Example 141, N-(3-sulfamoylphenyl)-5-(trifluoromethyl)-2-[(2R)-2-(trifluoro-methyl)morpholin-4-yl]pyridine-3-carboxamide], the IC50 stood at 553 nM.

The molecule `C[C@@H]1CN(c2ncc(C(F)(F)F)cc2C(=O)Nc2cccc(S(N)(=O)=O)c2)C[C@H](C(F)(F)F)O1` [Example 142, 2-[(2R,6R)-2-methyl-6-(trifluoromethyl)morpholin-4-yl]-N-(3-sulfamoylphenyl)-5-(trifluoromethyl)-pyridine-3-carboxamide] showed an IC50 of 1150 nM.

`NS(=O)(=O)c1cccc(NC(=O)c2cc(C(F)(F)F)cnc2N2CCNC(C(F)(F)F)C2)c1` (stereo not drawn) [Example 143, N-(3-sulfamoylphenyl)-5-(trifluoromethyl)-2-[3-(trifluoromethyl)-piperazin-1-yl]pyridine-3-carboxamide] gave an IC50 of 2180 nM.

As for `NS(=O)(=O)c1cccc(NC(=O)c2cc(C(F)(F)F)cnc2N2CCCO[C@@H](C(F)(F)F)C2)c1` [Example 144, (R)—N-(3-sulfamoylphenyl)-5-(trifluoromethyl)-2-(2-(trifluoromethyl)-1,4-oxazepan-4-yl) nicotinamide], 502 nM corresponded to half-maximal inhibition (IC50). This IC50 is about 4.3-fold lower than that of the molecule before.

On to `C[C@H]1CN(c2ncc(C(F)(F)F)cc2C(=O)Nc2cccc(S(N)(=O)=O)c2)C[C@H](C(F)(F)F)O1` [Example 145, 2-[(2S,6R)-2-methyl-6-(trifluoromethyl)morpholin-4-yl]-N-(3-sulfamoyl-phenyl)-5-(trifluoro-methyl)pyridine-3-carboxamide], for which the IC50 was 15 nM.

Regarding `C[C@@H]1CN(c2ncc(C(F)(F)F)cc2C(=O)Nc2cccc(S(N)(=O)=O)c2)C[C@@H](C(F)(F)F)O1` [Example 146, 2-[(2R,6S)-2-methyl-6-(trifluoromethyl)morpholin-4-yl]-N-(3-sulfamoylphenyl)-5-(trifluoromethyl) pyridine-3-carboxamide], the IC50 was 26 nM.

For `NS(=O)(=O)c1cccc(NC(=O)c2cc(C(F)(F)F)cnc2N2CCCO[C@H](C(F)(F)F)C2)c1` [Example 147, N-(3-sulfamoylphenyl)-5-(trifluoromethyl)-2-[(2S)-2-(trifluoro-methyl)-1,4-oxazepan-4-yl]pyridine-3-carboxamide], 32 nM corresponded to half-maximal inhibition (IC50). The IC50 values of the last two molecules are within 1.5-fold of each other.

On to `C[C@H]1CN(c2ncc(C(F)(F)F)cc2C(=O)Nc2cccc(S(N)(=O)=O)c2)C[C@@H](C(F)(F)F)O1` [Example 148, 2-[(2S,6S)-2-methyl-6-(trifluoromethyl)-morpholin-4-yl]-N-(3-sulfamoylphenyl)-5-(trifluoromethyl) pyridine-3-carboxamide], for which the IC50 was found to be 113 nM.

As for `O=C(Nc1cccc(S(=O)(=O)Nc2ccncn2)c1)c1cc(C(F)(F)F)cnc1N1CCCCCC1` [Example 151, 2-(azepan-1-yl)-3-((3-(N-(pyrimidin-4-yl)sulfamoyl)phenyl)carbamoyl)-5-(trifluoromethyl)pyridin-1-ium], the IC50 stood at 687 nM.

Take `CS(=O)(=O)c1cccc(NC(=O)c2cc(C(F)(F)F)cnc2N2CCC(F)(F)CC2)c1` [Example 152, 2-(4,4-difluoropiperidin-1-yl)-N-(3-(methylsulfonyl)phenyl)-5-(trifluoromethyl)nicotinamide]: half-maximal inhibition (IC50) was put at 67 nM.

Molecule `CC(C)Cc1cnc(N2CCCCC2)c(C(=O)Nc2cccc(S(N)(=O)=O)c2)c1` [Example 153, 5-isobutyl-2-(piperidin-1-yl)-N-(3-sulfamoylphenyl)nicotinamide] displayed a 50% inhibitory concentration (IC50) of 2240 nM.

The molecule `NS(=O)(=O)c1cccc(NC(=O)c2cc(C3CCCC3)cnc2N2CCCCC2)c1` [Example 154, 5-cyclopentyl-2-(piperidin-1-yl)-N-(3-sulfamoylphenyl)-nicotinamide] registered an IC50 of 1790 nM.

`COc1nc(N2CCCCCC2)c(C(=O)Nc2cccc(S(N)(=O)=O)c2)cc1C` [Example 155, 2-(azepan-1-yl)-6-methoxy-5-methyl-N-(3-sulfamoylphenyl)nicotinamide] gave an IC50 of 32 nM.

As to `COc1nc(N2CCCCCC2)c(C(=O)Nc2cccc(S(N)(=O)=O)c2)cc1Br` [Example 156, 2-(azepan-1-yl)-5-bromo-6-methoxy-N-(3-sulfamoylphenyl)nicotinamide], 19 nM corresponded to half-maximal inhibition (IC50).

With `Cc1nc(N2CCCCCC2)c(C(=O)Nc2cccc(S(N)(=O)=O)c2)cc1C#N` [Example 157, 2-(azepan-1-yl)-5-cyano-6-methyl-N-(3-sulfamoylphenyl)-pyridine-3-carboxamide], inhibition was half-maximal at 10 nM (IC50).

In the case of `Cc1cc(Cl)c(C(=O)Nc2cccc(S(N)(=O)=O)c2)c(N2CCCCCC2)n1` [Example 158, 2-(azepan-1-yl)-4-chloro-6-methyl-N-(3-sulfamoylphenyl)-pyridine-3-carboxamide], the midpoint of inhibition, the IC50, lay at 910 nM.
